ChEMBL document CHEMBL1201862, “PubChem BioAssay data set” (2004)
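A five-concentration, 48-hour dose response in 96-well plates underlies each endpoint, interpolated linearly between surrounding concentrations. GI50 = concentration required for 50% inhibition of growth.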 The source made the active and inactive calls. No stated cut-off is given here; in the data, active = GI50 up to about 1.1 µM and inactive = higher.

Legend:
Assay in all cases: growth of human tumour cells (NCI), 48 h
A549 = system: A549
COLO 205 = system: COLO 205
EKVX = system: EKVX
HCC 2998 = system: HCC 2998
HCT-116 = system: HCT-116
HCT-15 = system: HCT-15
K562 = system: K562
LOX IMVI = system: LOX IMVI
NCI-H23 = system: NCI-H23
NCI-H460 = system: NCI-H460
SF-539 = system: SF-539
SK-MEL-5 = system: SK-MEL-5
U-251 = system: U-251
UACC-257 = system: UACC-257
UO-31 = system: UO-31
OVCAR-4 = system: OVCAR-4
OVCAR-5 = system: OVCAR-5
SNB-19 = system: SNB-19

SMILES	GI50 (A549)	GI50 (COLO 205)	GI50 (EKVX)	GI50 (HCC 2998)	GI50 (HCT-116)	GI50 (HCT-15) [µM]	GI50 (K562)	GI50 (LOX IMVI)	GI50 (NCI-H23)	GI50 (NCI-H460)	GI50 (SF-539)	GI50 (SK-MEL-5)	GI50 (U-251)	GI50 (UACC-257)	GI50 (UO-31)	GI50 (OVCAR-4)	GI50 (OVCAR-5)	GI50 (SNB-19)
COC12OCCN(C)C1=CC(=O)C1N=NCC12 (stereo not drawn)	> 100 µM (inactive)	> 100 µM (inactive)	> 100 µM (inactive)	> 100 µM (inactive)	> 100 µM (inactive)	> 100	> 100 µM (inactive)	> 100 µM (inactive)	> 100 µM (inactive)	> 100 µM (inactive)	> 100 µM (inactive)	> 100 µM (inactive)	> 100 µM (inactive)	> 100 µM (inactive)	> 100 µM (inactive)	–	–	–
Cc1ccccc1C(=O)c1cc(O)ccc1O	> 100 µM (inactive)	50.6 µM (inactive)	> 100 µM (inactive)	53.8 µM (inactive)	> 100 µM (inactive)	50.1	35 µM (inactive)	–	65 µM (inactive)	85.9 µM (inactive)	> 100 µM (inactive)	> 100 µM (inactive)	50.7 µM (inactive)	> 100 µM (inactive)	> 100 µM (inactive)	> 100 µM (inactive)	> 100 µM (inactive)	> 100 µM (inactive)
COc1ccc2c(c1)CCCC1C3=NCCC3(C)CSC21 (stereo not drawn)	> 100 µM (inactive)	52.6 µM (inactive)	–	–	37.5 µM (inactive)	–	31 µM (inactive)	30.2 µM (inactive)	47.3 µM (inactive)	74 µM (inactive)	51.6 µM (inactive)	42.8 µM (inactive)	74.5 µM (inactive)	–	–	> 100 µM (inactive)	–	> 100 µM (inactive)
CCC1(Br)C(=O)NC(=O)N(C2CC(O)C(CO)O2)C1N=[N+]=[N-] (stereo not drawn)	> 100 µM (inactive)	> 100 µM (inactive)	> 100 µM (inactive)	> 100 µM (inactive)	–	–	> 100 µM (inactive)	> 100 µM (inactive)	56.8 µM (inactive)	> 100 µM (inactive)	> 100 µM (inactive)	> 100 µM (inactive)	> 100 µM (inactive)	83.6 µM (inactive)	> 100 µM (inactive)	> 100 µM (inactive)	> 100 µM (inactive)	> 100 µM (inactive)
O=Cc1[nH]c2ccccc2c1Br	> 100 µM (inactive)	17.7 µM (inactive)	35.9 µM (inactive)	60.5 µM (inactive)	18.5 µM (inactive)	–	15 µM (inactive)	26.7 µM (inactive)	30.3 µM (inactive)	–	15.3 µM (inactive)	16.5 µM (inactive)	21.6 µM (inactive)	28.5 µM (inactive)	30.8 µM (inactive)	31.3 µM (inactive)	98.4 µM (inactive)	24.8 µM (inactive)
CC1=CC2C(C=C1)S(=O)(=O)N1CC21c1ccccc1 (stereo not drawn)	> 100 µM (inactive)	> 100 µM (inactive)	–	> 100 µM (inactive)	> 100 µM (inactive)	> 100	69.2 µM (inactive)	33.5 µM (inactive)	> 100 µM (inactive)	> 100 µM (inactive)	> 100 µM (inactive)	> 100 µM (inactive)	> 100 µM (inactive)	> 100 µM (inactive)	55.1 µM (inactive)	–	> 100 µM (inactive)	> 100 µM (inactive)
COC1CC(O[C@H]2CC[C@@]3(C)C(=CCC4(O)C3CCC35C(=O)OC6(C)O[C@@]43CCC65)C2)OC(C)C1O (stereo partly drawn)	> 100 µM (inactive)	> 100 µM (inactive)	> 100 µM (inactive)	> 100 µM (inactive)	> 100 µM (inactive)	> 100	> 100 µM (inactive)	–	> 100 µM (inactive)	> 100 µM (inactive)	> 100 µM (inactive)	> 100 µM (inactive)	> 100 µM (inactive)	> 100 µM (inactive)	> 100 µM (inactive)	> 100 µM (inactive)	> 100 µM (inactive)	> 100 µM (inactive)
C[C@@H](C1CCC2C3C(=CC(=O)[C@@]21C)[C@H](C)[C@]1(CCC(=O)O1)C1OC31)[C@H]1C[C@]2(C)O[C@@](C)(O1)OC2(C)C (stereo partly drawn)	> 100 µM (inactive)	> 100 µM (inactive)	> 100 µM (inactive)	–	> 100 µM (inactive)	> 100	> 100 µM (inactive)	> 100 µM (inactive)	> 100 µM (inactive)	> 100 µM (inactive)	> 100 µM (inactive)	> 100 µM (inactive)	> 100 µM (inactive)	–	> 100 µM (inactive)	–	–	> 100 µM (inactive)
C/N=C(\S)N/N=C/C(C)=N/N/C(S)=N/C	> 100 µM (inactive)	> 100 µM (inactive)	> 100 µM (inactive)	> 100 µM (inactive)	0.0489 µM (active)	> 100	–	> 100 µM (inactive)	> 100 µM (inactive)	> 100 µM (inactive)	> 100 µM (inactive)	> 100 µM (inactive)	> 100 µM (inactive)	–	> 100 µM (inactive)	–	0.843 µM (active)	> 100 µM (inactive)
